Data: BigSolDB 2.1

C=C1C[C@]23C[C@H]1CC[C@H]2[C@@]12CC[C@H](O)[C@@](C)(C(=O)O1)[C@H]2[C@@H]3C(=O)O
solubility (mole fraction)
Settings | in acetone | in acetonitrile | in ethanol | in ethyl acetate | in isopropanol | in methanol | in n-butanol | in water
278.15 K | 0.053 | 0.00391 | 0.000809 | 0.0105 | 0.0691 | 0.0466 | 0.0588 | 9e-06
283.15 K | 0.057 | 0.00457 | 0.000911 | 0.0118 | 0.0745 | 0.051 | 0.0613 | 1.2e-05
288.15 K | 0.0596 | 0.00529 | 0.00107 | 0.0134 | 0.0775 | 0.0559 | 0.0674 | 1.7e-05
293.15 K | 0.0645 | 0.00647 | 0.00118 | 0.0157 | 0.0859 | 0.0637 | 0.0723 | 2.1e-05
298.15 K | 0.0692 | 0.00776 | 0.00133 | 0.0172 | 0.0916 | 0.0705 | 0.0762 | 2.8e-05
303.15 K | 0.0759 | 0.00907 | 0.00159 | 0.0195 | 0.0969 | 0.0743 | 0.0798 | 3.4e-05
308.15 K | 0.0801 | 0.0108 | 0.00187 | 0.0211 | 0.103 | 0.0805 | 0.0836 | 4.4e-05
313.15 K | 0.0862 | 0.0124 | 0.00217 | 0.0239 | 0.11 | 0.0882 | 0.0872 | 5.3e-05
318.15 K | 0.0917 | 0.0135 | 0.00257 | 0.0265 | 0.12 | 0.0933 | 0.0931 | 6.1e-05
323.15 K | 0.0983 | 0.0149 | 0.00273 | 0.0299 | 0.123 | 0.101 | 0.1 | 7.3e-05
328.15 K | 0.106 | 0.0168 | 0.00318 | 0.0325 | 0.131 | 0.11 | 0.109 | 9.2e-05
333.15 K | 0.112 | 0.0188 | 0.00387 | 0.0357 | 0.14 | 0.121 | 0.119 | 0.00012
